Measured values: ChEMBL document CHEMBL1128016, “5-Cyano-2-thiouracils and their derivatives: a new class of leishmanicides” (1994)

These compounds were tested on Leishmania donovani (assay: In vivo anti-leishmanial activity was determined against hamster amastigotes of Leishmania donovani).
Type: functional
Design: concentration or dose not given beside the values

Row | Compound | Inhibition [%]
1 | CCC1NC(=S)NC(=O)C1C#N (centres undefined) | 80
2 | N#Cc1c(Nc2ccc(F)cc2)nc(SCc2ccccc2)nc1-c1cccnc1 | 78
3 | COc1cccc(-c2nc3n(c(=O)c2C#N)CCCS3)c1 | 63
4 | C=CCSc1nc(O)c(C#N)c(-c2ccc(C)cc2)n1 | 75
5 | C=CCSc1nc(O)c(C#N)c(-c2cccc(OC)c2)n1 | 80
6 | COc1cccc(-c2nc(SC)n(C)c(=O)c2C#N)c1 | 61
7 | COc1cccc(-c2nc(SCc3ccccc3)nc(O)c2C#N)c1 | 0
8 | N#Cc1c(O)nc(SCc2ccc(Cl)cc2)nc1-c1cccnc1 | 84
9 | COc1cccc(-c2nc3n(c(=O)c2C#N)CCS3)c1 | 73
10 | COc1cccc(-c2nc(SCc3ccc(Cl)cc3)nc(O)c2C#N)c1 | 85
11 | Cc1ccc(-c2nc3n(c(=O)c2C#N)CCS3)cc1 | 65
12 | Cc1ccc(-c2nc(SCc3ccccc3)[nH]c(=O)c2C#N)cc1 | 82
13 | CCc1nc(SCc2ccc(Cl)cc2)nc(O)c1C#N | 76
14 | COc1cccc(-c2nc(SC)nc(Cl)c2C#N)c1 | 30
15 | CSc1nc(-c2ccc(C)cc2)c(C#N)c(=O)n1C | 50
16 | Cc1ccc(-c2nc3n(c(=O)c2C#N)CCCS3)cc1 | 62
17 | N#Cc1c(O)nc(S)nc1-c1ccc(F)cc1 | 63
18 | COc1cccc(-c2nc(S)nc(O)c2C#N)c1 | 78
19 | Cc1cccc(-c2nc(SCc3ccccc3)nc(O)c2C#N)c1 | 0
20 | N#Cc1c(O)nc(S)nc1-c1ccccc1Cl | 0
21 | CSc1nc(Cl)c(C#N)c(-c2ccc(C)cc2)n1 | 36
22 | Cc1ccc(-c2nc(S)nc(O)c2C#N)cc1 | 63
23 | N#Cc1c(Nc2ccccc2)nc(SCc2ccccc2)nc1-c1cccnc1 | 57

The compounds below were run on Leishmania donovani (assay: In vivo anti-leishmanial activity against hamster amastigotes of Leishmania donovani at a dose of 10 mg/kg for a period of 5 days).
Type: functional, organism-based
Design: dose 10 mg/kg

Row | Compound | inhibition [%]
24 | Sodium stibogluconate | 86
